{
  "source": "patent US20070110804A1",
  "about": "“Drug polymer complexes” (ROYER BIOMEDICAL, INC., priority 2003, published 2007)",
  "key": {"[1]": {"assay": "Formation of a low-solubility polymer/drug complex (gel) on mixing polyanion sodium salt with the salt of the active ingredient", "text": "A “yes” entry means that a complex of low solubility forms on mixing the sodium salt of the polymers and the salt of the active ingredient."}, "[2]": {"assay": "In vitro release profile of the drug polymer complex in PBS at 37° C.", "format": "physicochemical", "details": "½ dextran sulfate Mw 40,000 (40,000-50,000) and ½ Mw 500,000, FIG. 6", "description": "Release profile: Dextran sulfate/amikacin wet gel (100 mg) was placed in 2 ml centrifuge tube. PBS buffer (500 μl) was added to the centrifuged tube. After incubation at 37° C. for 24 hrs, the mixture was centrifuged at 13,000 RPM for 5 minutes. The supernatant was removed and analyzed microbiologically for the presence of drug. The process was repeated at 24 hr intervals for 31 days. The amount of released drug in the eluate was calculated from a standard curve.\nThe release profile is illustrated in FIG. 1. The release profiles for the compounds of the other Figures were generated in a similar manner."}, "[3]": {"assay": "Distribution of amikacin between gelatinous precipitate and supernatant on mixing amikacin sulfate with dextran sulfate (Na)", "format": "physicochemical", "details": "amikacin sulfate solution mixed with dextran sulfate (Na) solution", "quoted_text": "As part of the normal preparation of a solid dosage form based on calcium sulfate, a solution of amikacin sulfate was mixed with a solution of dextran sulfate (Na)."}, "[4]": {"tested_on": "S. Aureus", "details": "cited from earlier work"}, "[5]": {"tested_on": "E. Coli", "details": "cited from earlier work"}, "[6]": {"tested_on": "Enterobacter spp.", "details": "cited from earlier work"}, "[7]": {"tested_on": "P. Aeruginosa", "details": "cited from earlier work"}, "[8]": {"details": "mixing sodium salt of CMC-L (low viscosity carboxymethylcellulose) and salt of the active ingredient"}, "[9]": {"details": "mixing sodium salt of CMC-M (medium viscosity carboxymethylcellulose) and salt of the active ingredient"}, "[10]": {"details": "mixing sodium salt of Dextran Sulfate-500 and salt of the active ingredient"}},
  "note": "Like-named read-outs stand apart in the source and are kept apart here.",
  "data": [
    {"compound": "CN(C)CCCN1c2ccccc2Sc2ccc(Cl)cc21", "note": "[Chlorpromazine]", "values": [
      {"measurement": "complex of low solubility forms (yes/no), polymer CMC-L", "setting": "[1]", "value": "yes"},
      {"measurement": "complex of low solubility forms (yes/no), polymer CMC-M", "setting": "[1]", "value": "yes"},
      {"measurement": "complex of low solubility forms (yes/no), polymer Dextran Sulfate-500", "setting": "[1]", "value": "yes"}
    ]},
    {"compound": "CCCNC(C)C(=O)Nc1ccccc1C", "note": "(stereo not drawn) [Prilocaine]", "values": [
      {"measurement": "complex of low solubility forms (yes/no), polymer Dextran Sulfate-500", "setting": "[1]", "value": "yes"}
    ]},
    {"compound": "CCCCOc1cc(C(=O)NCCN(CC)CC)c2ccccc2n1", "note": "[Dibucaine]", "values": [
      {"measurement": "complex of low solubility forms (yes/no), polymer CMC-L", "setting": "[1]; [8]", "value": "yes"},
      {"measurement": "complex of low solubility forms (yes/no), polymer CMC-M", "setting": "[1]; [9]", "value": "yes"},
      {"measurement": "complex of low solubility forms (yes/no), polymer Dextran Sulfate-500", "setting": "[1]; [10]", "value": "yes"}
    ]},
    {"compound": "C[C@H]1c2cccc(O)c2C(=O)C2=C(O)[C@]3(O)C(=O)C(C(N)=O)=C(O)[C@@H](N(C)C)[C@@H]3[C@@H](O)[C@@H]21", "note": "[Doxycycline]", "values": [
      {"measurement": "complex of low solubility forms (yes/no), polymer CMC-L", "setting": "[1]; [8]", "value": "yes"},
      {"measurement": "complex of low solubility forms (yes/no), polymer CMC-M", "setting": "[1]; [9]", "value": "yes"},
      {"measurement": "complex of low solubility forms (yes/no), polymer Dextran Sulfate-500", "setting": "[1]; [10]", "value": "yes"}
    ]},
    {"compound": "COc1ccc2c3c1O[C@H]1C(=O)CC[C@@]4(O)[C@@H](C2)N(C)CC[C@]314", "note": "[Oxycodone]", "values": [
      {"measurement": "complex of low solubility forms (yes/no), polymer Dextran Sulfate-500", "setting": "[1]; [10]", "value": "yes"},
      {"measurement": "release rate compared to all (500,000) dextran sulfate complex", "setting": "[2]", "value": "increases the release rate"},
      {"measurement": "release rate compared to all (500,000) dextran sulfate complex", "setting": "[2]; listed as oxycodone", "value": "accelerated"}
    ]},
    {"compound": "CN[C@H](CC(C)C)C(=O)N[C@H]1C(=O)N[C@@H](CC(N)=O)C(=O)N[C@H]2C(=O)N[C@H]3C(=O)N[C@H](C(=O)N[C@H](C(=O)O)c4cc(O)cc(O)c4-c4cc3ccc4O)[C@H](O)c3ccc(c(Cl)c3)Oc3cc2cc(c3O[C@@H]2O[C@H](CO)[C@@H](O)[C@H](O)[C@H]2O[C@H]2C[C@](C)(N)[C@H](O)[C@H](C)O2)Oc2ccc(cc2Cl)[C@H]1O", "note": "[Vancomycin]", "values": [
      {"measurement": "complex of low solubility forms (yes/no), polymer CMC-L", "setting": "[1]", "value": "yes"},
      {"measurement": "complex of low solubility forms (yes/no), polymer Dextran Sulfate-500", "setting": "[1]", "value": "yes"}
    ]},
    {"compound": "CN(C)[C@@H]1C(O)=C(C(N)=O)C(=O)[C@@]2(O)C(O)=C3C(=O)c4c(O)cccc4[C@@](C)(O)[C@H]3[C@H](O)[C@@H]12", "note": "[Oxytetracycline]", "values": [
      {"measurement": "complex of low solubility forms (yes/no), polymer CMC-L", "setting": "[1]", "value": "yes"},
      {"measurement": "complex of low solubility forms (yes/no), polymer CMC-M", "setting": "[1]", "value": "yes"},
      {"measurement": "complex of low solubility forms (yes/no), polymer Dextran Sulfate-500", "setting": "[1]", "value": "yes"}
    ]},
    {"compound": "O=C1CC[C@@]2(O)[C@H]3Cc4ccc(O)c5c4[C@@]2(CCN3CC2CC2)[C@H]1O5", "note": "[Naltrexone]", "values": [
      {"measurement": "complex of low solubility forms (yes/no), polymer CMC-L", "setting": "[1]; [8]", "value": "no"},
      {"measurement": "complex of low solubility forms (yes/no), polymer CMC-M", "setting": "[1]; [9]", "value": "no"},
      {"measurement": "complex of low solubility forms (yes/no), polymer Dextran Sulfate-500", "setting": "[1]; [10]", "value": "yes"}
    ]},
    {"compound": "CCN(CC)CCOC(=O)c1ccc(N)cc1", "note": "[Procaine]", "values": [
      {"measurement": "complex of low solubility forms (yes/no), polymer Dextran Sulfate-500", "setting": "[1]; [10]", "value": "yes"}
    ]},
    {"compound": "CN1CCc2cccc3c2[C@H]1Cc1ccc(O)c(O)c1-3", "note": "[Apomorphine]", "values": [
      {"measurement": "complex of low solubility forms (yes/no), polymer Dextran Sulfate-500", "setting": "[1]; [10]", "value": "yes"}
    ]},
    {"compound": "[H]/N=C(/N)N[C@H]1[C@H](O)[C@@H](O)[C@H](O[C@@H]2O[C@@H](C)[C@](O)(C=O)[C@H]2O[C@@H]2O[C@@H](CO)[C@H](O)[C@@H](O)[C@@H]2NC)[C@@H](N/C(N)=N\\[H])[C@@H]1O", "note": "[Streptomycin]", "values": [
      {"measurement": "complex of low solubility forms (yes/no), polymer Dextran Sulfate-500", "setting": "[1]; [10]", "value": "yes"}
    ]},
    {"compound": "COc1cccc2c1C(=O)c1c(O)c3c(c(O)c1C2=O)C[C@@](O)(C(=O)CO)C[C@@H]3O[C@H]1C[C@H](N)[C@H](O)[C@H](C)O1", "note": "[Doxorubicin]", "values": [
      {"measurement": "complex of low solubility forms (yes/no), polymer CMC-L", "setting": "[1]; [8]", "value": "yes"},
      {"measurement": "complex of low solubility forms (yes/no), polymer CMC-M", "setting": "[1]; [9]", "value": "yes"},
      {"measurement": "complex of low solubility forms (yes/no), polymer Dextran Sulfate-500", "setting": "[1]; [10]", "value": "yes"}
    ]},
    {"compound": "NCC[C@H](O)C(=O)N[C@@H]1C[C@H](N)[C@@H](O[C@H]2O[C@H](CN)[C@@H](O)[C@H](O)[C@H]2O)[C@H](O)[C@H]1O[C@H]1O[C@H](CO)[C@@H](O)[C@H](N)[C@H]1O", "note": "[Amikacin]", "values": [
      {"measurement": "complex of low solubility forms (yes/no), polymer CMC-L", "setting": "[1]", "value": "no"},
      {"measurement": "complex of low solubility forms (yes/no), polymer Dextran Sulfate-500", "setting": "[1]", "value": "yes"},
      {"measurement": "amikacin included in the gelatinous precipitate", "setting": "[3]", "value": "> 90", "unit": "%"},
      {"measurement": "amikacin remaining in the supernatant", "setting": "[3]", "value": "< 10", "unit": "%"},
      {"measurement": "MIC", "setting": "[4]", "value": 1, "unit": "µg/mL"},
      {"measurement": "MIC", "setting": "[5]", "value": 2, "unit": "µg/mL"},
      {"measurement": "MIC", "setting": "[6]", "value": 2, "unit": "µg/mL"},
      {"measurement": "MIC", "setting": "[7]", "value": 2, "unit": "µg/mL"}
    ]},
    {"compound": "NC[C@H]1O[C@H](O[C@H]2[C@H](O)[C@@H](O[C@H]3O[C@H](CO)[C@@H](O)[C@H](N)[C@H]3O)[C@H](N)C[C@@H]2N)[C@H](N)C[C@@H]1O", "note": "[Tobramycin]", "values": [
      {"measurement": "complex of low solubility forms (yes/no), polymer Dextran Sulfate-500", "setting": "[1]; [10]", "value": "yes"}
    ]},
    {"compound": "CCCCNc1ccc(C(=O)OCCN(C)C)cc1", "note": "[Tetracaine]", "values": [
      {"measurement": "complex of low solubility forms (yes/no), polymer CMC-L", "setting": "[1]; [8]", "value": "yes"},
      {"measurement": "complex of low solubility forms (yes/no), polymer CMC-M", "setting": "[1]; [9]", "value": "yes"},
      {"measurement": "complex of low solubility forms (yes/no), polymer Dextran Sulfate-500", "setting": "[1]; [10]", "value": "yes"}
    ]},
    {"compound": "CCC(=O)C(CC(C)N(C)C)(c1ccccc1)c1ccccc1", "note": "(stereo not drawn) [Methadone]", "values": [
      {"measurement": "complex of low solubility forms (yes/no), polymer CMC-L", "setting": "[1]; [8]", "value": "no"},
      {"measurement": "complex of low solubility forms (yes/no), polymer CMC-M", "setting": "[1]; [9]", "value": "no"},
      {"measurement": "complex of low solubility forms (yes/no), polymer Dextran Sulfate-500", "setting": "[1]; [10]", "value": "yes"}
    ]},
    {"compound": "CC[C@H]1OC(=O)[C@H](C)[C@@H](O[C@H]2C[C@@](C)(OC)[C@@H](O)[C@H](C)O2)[C@H](C)[C@@H](O[C@@H]2O[C@H](C)C[C@H](N(C)C)[C@H]2O)[C@](C)(O)C[C@@H](C)C(=O)[C@H](C)[C@@H](O)[C@]1(C)O", "note": "[Erythromycin]", "values": [
      {"measurement": "complex of low solubility forms (yes/no), polymer CMC-L", "setting": "[1]", "value": "no"},
      {"measurement": "complex of low solubility forms (yes/no), polymer CMC-M", "setting": "[1]", "value": "no"},
      {"measurement": "complex of low solubility forms (yes/no), polymer Dextran Sulfate-500", "setting": "[1]", "value": "yes"}
    ]},
    {"compound": "Neomycin", "values": [
      {"measurement": "complex of low solubility forms (yes/no), polymer CMC-L", "setting": "[1]; [8]", "value": "no"},
      {"measurement": "complex of low solubility forms (yes/no), polymer CMC-M", "setting": "[1]; [9]", "value": "no"},
      {"measurement": "complex of low solubility forms (yes/no), polymer Dextran Sulfate-500", "setting": "[1]; [10]", "value": "yes"}
    ]}
  ]
}
